Data as given in PubChem BioAssay (NCI).
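Cultured in 96-well plates, cells were exposed to test compound for 48 hours across five concentrations. GI50 = concentration required for 50% inhibition of growth. TGI denotes the concentration required for complete inhibition of growth.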

Experiments:
Test in all cases: NCI-60 cell line screen, 48 h
[1] = test system: UO-31 renal
[2] = test system: U251 CNS
[3] = test system: OVCAR-4 ovarian
[4] = test system: SK-OV-3 ovarian
[5] = test system: NCI/ADR-RES ovarian
[6] = test system: OVCAR-5 ovarian
[7] = test system: NCI-H23 lung
[8] = test system: SF-295 CNS
[9] = test system: OVCAR-8 ovarian
[10] = test system: NCI-H460 lung

Clc1ccc2[nH]cc(-c3nnnn3-c3ccccc3)c2c1
GI50 [1]: 26900 nM
TGI [1]: > 100 µM
GI50 [2]: 14000 nM
TGI [2]: > 78.9 µM
GI50 [3]: > 43.8 µM
TGI [3]: > 100 µM
GI50 [4]: > 44.3 µM
TGI [4]: > 75.3 µM
GI50 [5]: 7.61 µM
TGI [5]: 41.8 µM
GI50 [6]: 21.8 µM
TGI [6]: > 89.8 µM
GI50 [7]: 8.11 µM
TGI [7]: 49.9 µM
GI50 [8]: 13.3 µM
TGI [8]: 52.7 µM
GI50 [9]: 29.5 µM
TGI [9]: > 93.3 µM
GI50 [10]: 20300 nM
TGI [10]: > 100 µM

[Cl][Hg][c]1cc[c]([Hg][Cl])o1
GI50 [1]: 1980 nM
TGI [1]: 3.96 µM
GI50 [2]: 737 nM
TGI [2]: 2.46 µM
GI50 [3]: 1.63 µM
TGI [3]: 4.24 µM
GI50 [4]: 15 µM
TGI [4]: 77.6 µM
GI50 [5]: 8.25 µM
TGI [5]: > 100 µM
GI50 [6]: 7.17 µM
TGI [6]: 23.9 µM
GI50 [7]: 7.91 µM
TGI [7]: 92.1 µM
GI50 [8]: 19.4 µM
TGI [8]: 58.6 µM
GI50 [9]: 3.39 µM
TGI [9]: 34.6 µM
GI50 [10]: 10000 nM
TGI [10]: 34.1 µM

C[C@@H]1CC[C@@H]2[C@@H]1[C@H](OC(=O)/C=C/c1ccccc1)[C@]1(C3CCCCC3)C[C@@H](OC(=O)CO)[C@@]2(C)O1
GI50 [1]: 15 nM
TGI [1]: 0.03 µM
GI50 [2]: 2700 nM
TGI [2]: 8.26 µM
GI50 [3]: 3.92 µM
TGI [3]: 16 µM
GI50 [4]: 6.71 µM
TGI [4]: 20.2 µM
GI50 [5]: 0.515 µM
TGI [5]: 5.2 µM
GI50 [6]: 1.93 µM
TGI [6]: 5.59 µM
GI50 [7]: 3.88 µM
TGI [7]: 14.8 µM
GI50 [8]: 3.6 µM
TGI [8]: 13.1 µM
GI50 [9]: 0.513 µM
TGI [9]: 13 µM
GI50 [10]: 2620 nM
TGI [10]: 6.55 µM

CCOC(=O)C(Cc1ccc(CCCC(=O)NCCC(=O)Nc2ccc3nc(C)sc3c2)cc1)C(=O)OCC
GI50 [1]: 26900 nM
TGI [1]: > 76.8 µM
GI50 [2]: > 81400 nM
TGI [2]: > 100 µM
GI50 [3]: 38.1 µM
TGI [3]: > 100 µM
GI50 [4]: > 100 µM
TGI [4]: > 100 µM
GI50 [5]: 24.6 µM
TGI [5]: 69.1 µM
GI50 [6]: > 100 µM
TGI [6]: > 100 µM
GI50 [7]: 28.9 µM
TGI [7]: > 93.7 µM
GI50 [8]: 49.4 µM
TGI [8]: > 100 µM
GI50 [9]: 20.1 µM
TGI [9]: 42.1 µM
GI50 [10]: > 62400 nM
TGI [10]: > 100 µM

Cn1cc(-c2csc(-c3c[nH]c4ccc(F)cc34)n2)c2cnccc21
GI50 [1]: 1420 nM
TGI [1]: 2.73 µM
GI50 [2]: 1870 nM
TGI [2]: 3.4 µM
GI50 [3]: 1.6 µM
TGI [3]: 3.06 µM
GI50 [4]: 1.73 µM
TGI [4]: 3.16 µM
GI50 [5]: 1.98 µM
TGI [5]: 3.98 µM
GI50 [6]: 1.91 µM
TGI [6]: 3.36 µM
GI50 [7]: 1.62 µM
TGI [7]: 3.25 µM
GI50 [8]: 1.74 µM
TGI [8]: 3.25 µM
GI50 [10]: 1990 nM
TGI [10]: 3.95 µM

COc1cc(NS(C)(=O)=O)ccc1Nc1c2ccccc2nc2c1[nH]c1ccc(NC3OC(CO)C(O)C(O)C3O)cc12 (stereo not drawn)
TGI [1]: 1.19 µM
TGI [2]: 0.332 µM
TGI [3]: 4.66 µM
TGI [4]: 0.299 µM
TGI [5]: 45.8 µM
TGI [6]: 2.09 µM
TGI [7]: 0.27 µM
TGI [8]: 0.13 µM
TGI [9]: 0.95 µM
TGI [10]: 0.196 µM

O=C(CSc1nc2ccccc2nc1-c1ccccc1)Nc1ccc(F)cc1
GI50 [1]: 45700 nM
TGI [1]: > 100 µM
GI50 [2]: 38800 nM
TGI [2]: > 100 µM
GI50 [3]: 1.96 µM
TGI [3]: 15.7 µM
GI50 [4]: 35 µM
TGI [4]: > 100 µM
GI50 [5]: 29.9 µM
TGI [5]: > 100 µM
GI50 [6]: > 100 µM
TGI [6]: > 100 µM
GI50 [7]: 69.7 µM
TGI [7]: > 100 µM
GI50 [8]: 40.6 µM
TGI [8]: > 100 µM
GI50 [9]: 30 µM
TGI [9]: > 100 µM
GI50 [10]: 60700 nM
TGI [10]: > 100 µM

O=C(O)Cc1cc(Cl)ccc1O
TGI [1]: > 100 µM
TGI [2]: > 100 µM
TGI [3]: > 100 µM
TGI [4]: > 100 µM
TGI [5]: > 100 µM
TGI [6]: > 100 µM
TGI [7]: > 100 µM
TGI [8]: > 100 µM
TGI [9]: > 100 µM
TGI [10]: > 100 µM

COc1cc2c3c(n(C)c(=O)c2cc1OC)-c1cc2c(cc1/C3=C\CN)OCO2
GI50 [1]: 621 nM
TGI [1]: > 41.1 µM
GI50 [2]: 39.5 nM
TGI [2]: 3.31 µM
GI50 [3]: 5.55 µM
TGI [3]: > 27.2 µM
GI50 [4]: 0.412 µM
GI50 [5]: 1.21 µM
TGI [5]: 68.7 µM
GI50 [6]: 2.16 µM
TGI [6]: > 35.7 µM
GI50 [7]: 0.249 µM
TGI [7]: 8.77 µM
TGI [8]: 0.614 µM
GI50 [9]: 0.774 µM
TGI [9]: > 51.9 µM
GI50 [10]: 87.9 nM
TGI [10]: > 24.1 µM

CN1C(=O)N(C)C2C1NN=c1s/c(=C\c3ccc(Cl)cc3Cl)c(=O)n12 (stereo not drawn)
GI50 [1]: 892 nM
TGI [1]: > 71.8 µM
GI50 [2]: 192 nM
TGI [2]: > 100 µM
GI50 [3]: 1.66 µM
TGI [3]: > 78.9 µM
GI50 [4]: 0.754 µM
TGI [4]: > 100 µM
GI50 [5]: 0.13 µM
TGI [5]: 18.1 µM
GI50 [6]: 0.601 µM
TGI [6]: > 100 µM
GI50 [7]: 0.37 µM
TGI [7]: 52.9 µM
GI50 [8]: 0.0579 µM
TGI [8]: 15.3 µM
GI50 [9]: 0.399 µM
TGI [9]: > 100 µM
GI50 [10]: 199 nM
TGI [10]: > 94.3 µM

COc1ccc2c(c1)C(=O)c1c-2c(N2CCN(C(=O)CNCCNCCO)CC2)nc2ccccc12
GI50 [1]: 1890 nM
TGI [1]: 4.54 µM
GI50 [2]: 4080 nM
TGI [2]: 16.3 µM
GI50 [3]: 6.71 µM
TGI [3]: 19.4 µM
GI50 [4]: 13.7 µM
TGI [4]: 28.2 µM
GI50 [5]: 15 µM
TGI [5]: 33.1 µM
GI50 [6]: 15.4 µM
TGI [6]: 31 µM
GI50 [8]: 12.4 µM
TGI [8]: 32.3 µM
GI50 [9]: 10.2 µM
TGI [9]: 33.8 µM
GI50 [10]: 1940 nM
TGI [10]: 4.14 µM

Cc1c2c(C#N)nccc2c(C)c2c1c1ccccc1n2Cc1ccccc1
TGI [1]: > 100 µM
TGI [2]: > 100 µM
TGI [3]: > 100 µM
TGI [4]: > 100 µM
TGI [5]: > 100 µM
TGI [6]: > 100 µM
TGI [7]: > 100 µM
TGI [8]: > 100 µM
TGI [9]: > 100 µM
TGI [10]: > 100 µM

CS(=O)(=O)CCNCc1nc(-c2ccc3ncnc(Nc4ccc(OCc5cccc(C(F)(F)F)c5)cc4)c3c2)cs1
GI50 [1]: > 22600 nM
TGI [1]: > 25 µM
GI50 [2]: 5900 nM
TGI [2]: > 22.6 µM
GI50 [3]: > 25 µM
TGI [3]: > 25 µM
GI50 [4]: 6.01 µM
TGI [4]: > 21.6 µM
GI50 [5]: > 25 µM
TGI [5]: > 25 µM
GI50 [6]: > 25 µM
TGI [6]: > 25 µM
GI50 [7]: 12.5 µM
TGI [7]: > 25 µM
GI50 [8]: 9.45 µM
TGI [8]: > 25 µM
GI50 [9]: 11.1 µM
TGI [9]: > 25 µM
GI50 [10]: > 25000 nM
TGI [10]: > 25 µM

COc1cc2c(c(OC)c1OC)-c1ccc(SC)c(=O)cc1C(NC=O)CC2 (stereo not drawn)
TGI [1]: > 100 µM
TGI [2]: 5.68 µM
TGI [3]: > 100 µM
TGI [4]: 63.9 µM
TGI [5]: 0.273 µM
TGI [6]: > 94.3 µM
TGI [7]: 50 µM
TGI [8]: 0.123 µM
TGI [9]: > 68.5 µM
